Data on 9 compounds can be found in patent publication US10695334B2, “Heteroaromatic carboxamide derivatives as plasma kallikrein inhibitors” (Boehringer Ingelheim International GmbH, priority 2018, dated 2020).

What all share (assay type): biochemical
The target of assay [1] is human TK1 (Homo sapiens (Human), UniProt P06870). Kind of assay: Inhibition of TK1 (Ki). Conditions: column head prints IC50, text above the table says Ki values. As for the experimental part:
The ability of compounds of formula (I) to inhibit plasma kallikrein (PKK), Factor Xlla (FXIIa), Factor Xla (FXIa), Factor Xa (FXa), Factor Ila (alpha-thrombin; FIIa), plasmin, trypsin, tissue kallikrein 1 (TK1), Factor VIIa (FVIIa), or FVIIa complexed with Tissue Factor, phospholipids and CaCl2 (FVIIa/TF/PL/CaCl2) was determined using the following biochemical assays in assay buffer (100 mM Tris, 150 mM NaCL, adjusted to a pH of 7.8 with HCl, and containing 0.1% (w/v) BSA and 0.05% (v/v) Tween20) in the presence of 1% (v/v) DMSO: EVALUATION OF THE INHIBITION OF PKK USING AN ENDPOINT ASSAY Human PKK (0.01 U/mL; Enzyme Research Laboratories) or rat PKK (0.625 nM; produced in-house) was incubated for 1 h at room temperature with 0.10 μM fluorogenic substrate H-Pro-Phe-Arg-AMC (11295 from Bachem) and various concentrations of the test compound in assay buffer. Subsequently, PPACK II (Calbiochem) was added as a stop solution to achieve a final concentration of 1 μM and fluorescence was measured using an Envision Reader (PerkinElmer) with the wavelength excitation setting of 355 nm and the wavelength emission setting of 460 nm.
Prior to the assay, human TK1 (R&D Systems) was activated by incubation with human trypsin (Calbiochem) in a 1:10,000 ratio for 15 min at 37° C. For assaying TK1 inhibitory activity, activated TK1 (31.25 nM or 1 U/mL) was incubated at 24° C. with 0.1 mM fluorogenic substrate H-Pro-Phe-Arg-AMC (11295 from Bachem) and various concentrations of the test compound in assay buffer. Measurements were performed in a kinetic interval every 2nd minute for 16 min using a Spectramax M5 (Molecular Devices) with the following settings of the wavelength excitation of 350 nm and wavelength emission of 450 nm.
The average Vmax values for the time interval from 2 to 12 min after initiation of the assay (expressed as either delta OD/min for assays using a chromogenic substrate or delta RFU/min for assays using a fluorigenic substrate, respectively) were plotted versus the Log of the concentration in molar of the evaluated inhibitor compound. The pIC50 values were then fitted using a four-parametric fitting procedure using GraphPad Prism (version 6; GraphPad Software, Inc.). Respective Ki values were obtained by correction of the IC50 values for the respective KM value of the used substrate (see Table A for the obtained KM values of the used substrates) using the following formula: […]
(§1) Where the IC50 is in molar and the KM value in mM.

In assay [2] the target is T1, Human PKK (Homo sapiens (Human), UniProt P03952). The experiment in a line: Inhibition of PKK, endpoint assay (human PKK). Conditions: substrate H-Pro-Phe-Arg-AMC, 1 h room temperature. As for the experimental part: Subsequently, PPACK II (Calbiochem) was added as a stop solution to achieve a final concentration of 1 μM and fluorescence was measured using an Envision Reader (PerkinElmer) with the wavelength excitation setting of 355 nm and the wavelength emission setting of 460 nm.
T1 sequence (P03952 391-638): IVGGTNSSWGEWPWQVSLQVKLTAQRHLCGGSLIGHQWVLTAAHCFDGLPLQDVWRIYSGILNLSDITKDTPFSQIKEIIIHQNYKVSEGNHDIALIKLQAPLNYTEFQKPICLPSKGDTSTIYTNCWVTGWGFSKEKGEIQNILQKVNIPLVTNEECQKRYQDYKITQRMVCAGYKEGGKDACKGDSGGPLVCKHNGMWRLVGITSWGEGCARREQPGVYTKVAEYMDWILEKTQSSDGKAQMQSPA
T1 sequence (P03952 20-390 partner): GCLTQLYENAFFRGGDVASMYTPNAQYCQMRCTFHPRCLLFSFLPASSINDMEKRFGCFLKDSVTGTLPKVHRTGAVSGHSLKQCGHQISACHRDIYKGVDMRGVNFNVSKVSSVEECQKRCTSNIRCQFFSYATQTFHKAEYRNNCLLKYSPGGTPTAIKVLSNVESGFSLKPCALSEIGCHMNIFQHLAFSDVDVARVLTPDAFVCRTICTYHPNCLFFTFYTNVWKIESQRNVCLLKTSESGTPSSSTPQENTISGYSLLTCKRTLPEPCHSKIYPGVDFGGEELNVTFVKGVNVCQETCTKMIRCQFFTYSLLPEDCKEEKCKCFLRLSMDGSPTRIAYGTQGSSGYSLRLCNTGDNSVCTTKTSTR

Assay [3] deals with T1, Human PKK. Kind of assay: Inhibition of PKK (Ki), kinetic assay. Particulars: 24° C., IC50 corrected for KM. As for the experimental part:
Measurements were performed in a kinetic interval every 2nd minute for 16 min using a Spectramax M5 (Molecular Devices) with the following settings of the wavelength excitation of 350 nm and wavelength emission of 450 nm. The number of the compound corresponds to the number of the Example in the experimental section.
The pIC50 values were then fitted using a four-parametric fitting procedure using GraphPad Prism (version 6; GraphPad Software, Inc.).
as §1

For assay [4], the target named is PKK in kaolin activated human platelet poor plasma (Homo sapiens (Human), UniProt P03952). The experiment in a line: Inhibition of PKK in kaolin activated human PPP. Particulars: global fit over 25, 75, 250, 750 μg/mL kaolin. The protocol:
Platelet poor plasma (PPP) obtained from human wholeblood, anticoagulated with Na-Citrat, was incubated with various concentrations of the test compound together with either 25, 75, 250, or 750 μg/mL kaolin in assay buffer for 20 min at 37° C. such that for each kaolin dose used a concentration response was obtained for the test compound.

Chain of human TK1 (P06870 25-262): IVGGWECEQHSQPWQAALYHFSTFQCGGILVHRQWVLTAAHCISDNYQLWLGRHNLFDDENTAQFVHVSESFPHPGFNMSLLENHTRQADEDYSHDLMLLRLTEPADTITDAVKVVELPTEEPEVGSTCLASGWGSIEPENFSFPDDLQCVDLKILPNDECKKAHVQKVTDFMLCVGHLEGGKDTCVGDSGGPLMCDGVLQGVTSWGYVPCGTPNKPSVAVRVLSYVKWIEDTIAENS
Chain of PKK in kaolin activated human platelet poor plasma (P03952 391-638): as the sequence (P03952 391-638) above
Chain of PKK in kaolin activated human platelet poor plasma (P03952 20-390 partner): as the sequence (P03952 20-390 partner) above

Regarding `Cc1nc(N2CCC3(CCC3)C2)ccc1Cn1cc(C(=O)N[C@@H]2CCc3c2n[nH]c3C)cn1` [Example 36, 1-[(6-{6-Azaspiro[3.4]octan-6-yl}-2-methylpyridin-3-yl)methyl]-N-[(6R)-3-methyl-2H,4H,5H,6H-cyclopenta[c]pyrazol-6-yl]-1H-pyrazole-4-carboxamide], the IC50 in assay [1] is above 10000 nM; in assay [2], 4 nM. In addition, the affinity in assay [3] corresponds to a Ki of 1 nM. Also, the IC90 in assay [4] came to 4670 nM.

As to `Cc1nc(N2CC(C)(C)C2)ccc1Cn1cc(C(=O)N[C@@H]2CCc3c2n[nH]c3C)cn1` [Example 67, 1-{[6-(3,3-Dimethylazetidin-1-yl)-2-methylpyridin-3-yl]methyl}-N-[(6R)-3-methyl-2H,4H,5H,6H-cyclopenta[c]pyrazol-6-yl]-1H-pyrazole-4-carboxamide], the IC50 in assay [2] was determined as 2 nM. In assay [3], this compound registered a Ki of 1 nM. The IC90 in assay [4] is 545 nM.

`Cc1nc(N2CC3(CC3)C2)ccc1Cn1cc(C(=O)N[C@@H]2CCc3c(C)n[nH]c32)cn1` [Example 11] displayed an IC50 in assay [2] of 1 nM. Further, the IC90 in assay [4] was 598 nM.

Consider `COCc1nn(Cc2ccc(N3CC4CC4C3)nc2C)cc1C(=O)N[C@@H]1CCc2c(C)n[nH]c21` (stereo partly drawn) [Example 16, 1-[(6-{3-Azabicyclo[3.1.0]hexan-3-yl}-2-methyl-pyridin-3-yl)methyl]-3-(methoxymethyl)-N-[(6R)-3-methyl-1H,4H,5H,6H-cyclopenta[c]pyrazol-6-yl]-1H-pyrazole-4-carboxamide], for which the values for the IC50 in assay [1] and in assay [2] were above 10000 nM and 0.9 nM, respectively. The compound further gave a Ki in assay [3] of 0.1 nM.

`Cc1nc(N2CC3C(C2)C3(F)F)ncc1Cn1cc(C(=O)N[C@@H]2CCc3c(C)n[nH]c32)c2cncnc21` (stereo partly drawn) [Example 21, 7-[(2-{6,6-Difluoro-3-azabicyclo[3.1.0]hexan-3-yl}-4-methylpyrimidin-5-yl)methyl]-N-[(6R)-3-methyl-1H,4H,5H,6H-cyclopenta[c]pyrazol-6-yl]-7H-pyrrolo[2,3-d]pyrimidine-5-carboxamide]: the IC50 in assay [1] is above 10000 nM; in assay [2], 1 nM. Further, in assay [3], the Ki was determined as 0.1 nM.

Consider `Cc1nc(N2CC3C(C2)C3(F)F)ccc1Cn1cc(C(=O)N[C@@H]2CCc3c(C)n[nH]c32)c2cncnc21` (stereo partly drawn) [Example 13, 7-[(6-{6,6-Difluoro-3-azabicyclo[3.1.0]hexan-3-yl}-2-methylpyridin-3-yl)methyl]-N-[(6R)-3-methyl-1H,4H,5H,6H-cyclopenta[c]pyrazol-6-yl]-7H-pyrrolo[2,3-d]pyrimidine-5-carboxamide], for which the IC50 was above 10000 nM in assay [1] and 0.5 nM in assay [2]. Affinity in assay [3] was put at a Ki of 0.1 nM.

Turning to `COc1nn(Cc2ccc(N3CC4CC4C3)nc2C)cc1C(=O)N[C@@H]1CCc2c(C)n[nH]c21` (stereo partly drawn) [Example 20, 1-[(6-{3-Azabicyclo[3.1.0]hexan-3-yl}-2-methyl-pyridin-3-yl)methyl]-3-methoxy-N-[(6R)-3-methyl-1H,4H,5H,6H-cyclopenta[c]pyrazol-6-yl]-1H-pyrazole-4-carboxamide], the IC50 in assay [1] was above 10000 nM; in assay [2], 1 nM. In assay [3], this compound had an inhibition constant (Ki) of 0.2 nM.

Regarding `Cc1nc(N2CC3CC3C2)ccc1Cn1cc(C(=O)N[C@@H]2CCc3c(C)n[nH]c32)c2cncnc21` (stereo partly drawn) [Example 17, 7-[(6-{3-Azabicyclo[3.1.0]hexan-3-yl}-2-methyl-pyridin-3-yl)methyl]-N-[(6R)-3-methyl-1H,4H,5H,6H-cylcopenta[c]pyrazol-6-yl]-7H-pyrrolo[2,3-d]pyrimidine-5-carboxamide], the IC50 in assay [1] is above 10000 nM; in assay [2], 0.9 nM. In assay [3], this compound came in with a Ki of 0.1 nM.

With `COCc1nn(Cc2ccc(N3CC4C(C3)C4(F)F)nc2C)cc1C(=O)N[C@@H]1CCc2c(C)n[nH]c21` (stereo partly drawn) [Example 15, 1-[(6-{6,6-Difluoro-3-azabicyclo[3.1.0]hexan-3-yl}-2-methylpyridin-3-yl)methyl]-3-(methoxymethyl)-N-[(6R)-3-methyl-1H,4H,5H,6H-cyclopenta[c]-pyrazol-6-yl]-1H-pyrazole-4-carboxamide], the IC50 was above 10000 nM in assay [1] and 0.8 nM in assay [2]. In addition, affinity in assay [3] was put at a Ki of 0.1 nM.
